Values after ≈ are worked out from the molar mass of the structure shown. Active and inactive are the calls of the source. No cut-off for these calls is given here.
Assays:
[1] = test system: Enterococcus faecalis; assay: Antibacterial activity against Streptococcus faecalis MGH-2 by gradient plate test; type: functional
[2] = test system: Staphylococcus aureus; assay: Antibacterial activity against Staphylococcus aureus UC-96 by gradient plate test; type: functional
[3] = test system: Staphylococcus aureus; assay: Antibacterial activity against drug-resistant Staphylococcus aureus S18713 by gradient plate test; type: functional
[4] = test system: Pseudomonas aeruginosa; assay: Antibacterial activity against Pseudomonas aeruginosa 28 by gradient plate test; type: functional
[5] = test system: Escherichia coli; assay: Antibacterial activity against Escherichia coli Vogel by gradient plate test; type: functional
[6] = test system: Shigella sonnei; assay: Antibacterial activity against Shigella sonnei C-10 by gradient plate test; type: functional
[7] = test system: Mycobacterium tuberculosis; assay: Antibacterial activity against Mycobacterium tuberculosis H37Ra by gradient plate test; type: functional
[8] = test system: Plasmodium berghei; assay: Antimalarial activity against Plasmodium berghei infected in mouse assessed as increase in mean survival days of host at 160 mg/kg, sc administered 72 hrs after infection relative to control; type: functional; details: route subcutaneous
[9] = test system: Plasmodium berghei; assay: Antimalarial activity against Plasmodium berghei infected in mouse assessed as increase in mean survival days of host at 80 mg/kg, sc administered 72 hrs after infection relative to control; type: functional; details: route subcutaneous
[10] = test system: Plasmodium berghei; assay: Antimalarial activity against Plasmodium berghei infected in mouse assessed as increase in mean survival days of host at 40 mg/kg, sc administered 72 hrs after infection relative to control; type: functional; details: route subcutaneous
[11] = test system: Plasmodium berghei; assay: Antimalarial activity against Plasmodium berghei infected in mouse assessed as increase in mean survival days of host at 20 mg/kg, sc administered 72 hrs after infection relative to control; type: functional; details: route subcutaneous
[12] = test system: Plasmodium berghei; assay: Antimalarial activity against Plasmodium berghei infected in mouse assessed as increase in mean survival days of host at 10 mg/kg, sc administered 72 hrs after infection relative to control; type: functional; details: route subcutaneous
[13] = test system: Plasmodium berghei; assay: Antimalarial activity against Plasmodium berghei infected in mouse assessed as disease cure from parasite infection at 640 mg/kg, sc administered 72 hrs after infection; type: functional, organism-based; set-up: dose 640 mg/kg
[14] = test system: Plasmodium berghei; assay: Antimalarial activity against Plasmodium berghei infected in mouse assessed as disease cure from parasite infection at 320 mg/kg, sc administered 72 hrs after infection; type: functional, organism-based; set-up: dose 320 mg/kg
[15] = test system: Plasmodium berghei; assay: Antimalarial activity against Plasmodium berghei infected in mouse assessed as disease cure from parasite infection at 160 mg/kg, sc administered 72 hrs after infection; type: functional, organism-based; set-up: dose 160 mg/kg
[16] = test system: Plasmodium berghei; assay: Antimalarial activity against trophozoite-induced Plasmodium berghei infected in mouse assessed as daily dose required to suppression of 90% parasite infection administered with diet for 6 days; type: functional
[17] = test system: Plasmodium berghei; assay: Ratio of quinine hydrochloride SD90 to compound SD90 for trophozoite-induced Plasmodium berghei infected in mouse assessed as daily dose required to suppression of 90% parasite infection administered with diet for 6 days; type: functional
[18] = test system: Plasmodium berghei; assay: Antimalarial activity against Plasmodium berghei infected in mouse assessed as increase in mean survival days of host at 5 mg/kg, sc administered 72 hrs after infection relative to control; type: functional; details: route subcutaneous
[19] = test system: Plasmodium berghei; assay: Antimalarial activity against Plasmodium berghei infected in mouse assessed as increase in mean survival days of host at 2.5 mg/kg, sc administered 72 hrs after infection relative to control; type: functional; details: route subcutaneous
[20] = test system: Plasmodium berghei; assay: Antimalarial activity against Plasmodium berghei infected in mouse assessed as increase in mean survival days of host at 1.25 mg/kg, sc administered 72 hrs after infection relative to control; type: functional; details: route subcutaneous
[21] = test system: Plasmodium berghei; assay: Antimalarial activity against Plasmodium berghei infected in mouse assessed as disease cure from parasite infection at 80 mg/kg, sc administered 72 hrs after infection; type: functional, organism-based; set-up: dose 80 mg/kg
[22] = test system: Plasmodium berghei; assay: Antimalarial activity against Plasmodium berghei infected in mouse assessed as disease cure from parasite infection at 40 mg/kg, sc administered 72 hrs after infection; type: functional, organism-based; set-up: dose 40 mg/kg
[23] = test system: Plasmodium berghei; assay: Antimalarial activity against Plasmodium berghei infected in mouse assessed as disease cure from parasite infection at 20 mg/kg, sc administered 72 hrs after infection; type: functional, organism-based; set-up: dose 20 mg/kg

Compound | MIC [1] | MIC [2] | MIC [3] | MIC [4] | MIC [5] | MIC [6] | MIC [7] | MST [9] | MST [10] | MST [11] | MST [12] | Activity [13] | Activity [14] | Activity [15] | SD90 [16] | Ratio [17] | MST [18] | MST [19] | Activity [21] | Activity [22] | other results
Nc1nc(N)c2cc(Sc3cc(Cl)cc(Cl)c3)ccc2n1 | < 0.25 µg/mL | < 0.25 µg/mL | < 0.25 µg/mL | > 25 µg/mL | 2 µg/mL (≈ 5.93 µM) | 20 µg/mL (≈ 59.3 µM) | 20 µg/mL (≈ 59.3 µM) | 12.7 days | 6.9 days | 4.1 days | 1.1 days | Active | Active | Active | – | – | – | – | – | – | MST [8]: 17.9 days
COc1cc(Cc2cnc(N)nc2N)cc(OC)c1OC [TRIMETHOPRIM] | < 0.25 µg/mL | < 0.25 µg/mL | < 0.25 µg/mL | > 25 µg/mL | < 0.25 µg/mL | < 0.25 µg/mL | > 25 µg/mL | – | – | – | – | – | – | – | 120 mg/kg/day | 0.6 | – | – | – | – | –
Cc1c(Sc2ccc(Cl)c(Cl)c2)ccc2nc(N)nc(N)c12 | – | – | – | – | – | – | – | – | – | 15.4 days | 7.9 days | Active | Active | Active | – | – | 7.3 days | 2.5 days | Active | Active | MST [20]: 1.3 days; Activity [23]: Active
Nc1nc(N)c2cc(Sc3ccc(-c4ccccc4)cc3)ccc2n1 | – | – | – | – | – | – | – | 15.6 days | 12.1 days | 7.9 days | 6.5 days | – | Active | Active | – | – | 1.1 days | – | Active | – | –
CC(=O)Nc1ccc(Sc2ccc3nc(N)nc(N)c3c2)cc1 | < 0.25 µg/mL | < 0.25 µg/mL | < 0.25 µg/mL | > 25 µg/mL | 2.5 µg/mL (≈ 7.68 µM) | > 25 µg/mL | > 25 µg/mL | 24.9 days | 12.9 days | 6.3 days | 3.3 days | Active | Active | Active | – | – | – | – | Active | – | –
Nc1nc(N)c2cc(Sc3cc(Cl)ccc3Cl)ccc2n1 | < 0.25 µg/mL | < 0.25 µg/mL | < 0.25 µg/mL | > 25 µg/mL | 1 µg/mL (≈ 2.97 µM) | 10 µg/mL (≈ 29.7 µM) | – | 9.8 days | 8.2 days | 5.9 days | 2.9 days | Active | Active | Active | 4.5 mg/kg/day | 17 | 2.3 days | – | – | – | MST [8]: 8.8 days
Cc1c(Sc2ccc3ccccc3c2)ccc2nc(N)nc(N)c12 | < 2.5 µg/mL | < 2.5 µg/mL | < 2.5 µg/mL | > 25 µg/mL | < 2.5 µg/mL | < 2.5 µg/mL | – | – | – | 20.9 days | 12.9 days | Active | Active | Active | – | – | 10.9 days | 6.5 days | Active | Active | MST [20]: 1.9 days; Activity [23]: Active
CN(Cc1ccc(Cl)c(Cl)c1)c1ccc2nc(N)nc(N)c2c1.Cl | – | – | – | – | – | – | – | – | – | – | – | – | – | – | 0.16 mg/kg/day | 470 | – | – | – | – | –
Nc1nc(N)c2cc(Sc3c(Cl)c(Cl)c(Cl)c(Cl)c3Cl)ccc2n1 | 1.5 µg/mL (≈ 3.4 µM) | 10 µg/mL (≈ 22.7 µM) | 20 µg/mL (≈ 45.4 µM) | > 25 µg/mL | > 25 µg/mL | > 25 µg/mL | – | – | 18.1 days | 10.7 days | 6.6 days | – | Active | Active | – | – | 2.7 days | 2 days | Active | Active | –
